The source of these data is patent US9788542B2, “Safened herbicidal compositions including 4-amino-3-chloro-5-fluoro-6-(4-chloro-2-fluoro-3-methoxyphenyl)pyridine-2-carbox) acid or a derivative thereof for use in corn (maize)” (Dow AgroSciences LLC, priority 2013, dated 2017).

Holding throughout (format): in vivo
One data set relates to ZEAMX = Zea mays L. Put plainly: Postemergence herbicidal safening in corn (maize), greenhouse, visual injury. To be noted: for ZEAMX Obs (observed visual injury, 0 = no injury, 100 = complete kill): applied alone at 4 g ai/ha. Here is the method: (§1) When required to ensure good germination and healthy plants, a fungicide treatment and/or other chemical or physical treatment was applied. The plants were grown for 7-36 days in a greenhouse with an approximate 14 hour photoperiod which was maintained at about 18° C. during the day and 17° C. during the night. Nutrients and water were added on a regular basis and supplemental lighting was provided with overhead metal halide 1000-Watt lamps as necessary. The plants were employed for testing when they reached the second or third true leaf stage. Treatments consisted of ester (benzyl) compound of formula (I) (Compound A benzyl ester) and various safeners alone and in combination. Compound of formula (I) and safener components were applied on active ingredient basis. For treatments comprised of formulated compounds, measured amounts of compound of formula (I) were placed individually in 25 mL glass vials and diluted in a volume of 1.25% volume per volume (v/v) Agri-dex crop oil concentrate to obtain stock solutions. […] Stock solutions of the formulated safeners were prepared following the same procedure. Application solutions were prepared by mixing the required amount of each stock solution and addition of an appropriate volume of an aqueous mixture of 1.25% v/v of Agri-dex crop oil concentrate to the appropriate final concentrations of application solutions. […] Application solutions were prepared by adding an appropriate amount of each stock solution and diluted to the appropriate final concentrations with the addition of an appropriate volume of an aqueous mixture of 1.25% (v/v) Agri-dex crop oil concentrate. Application solutions were applied to the plant material with an overhead Mandel track sprayer equipped with […] nozzles calibrated to deliver 187 liters per hectare (L/ha) over an application area of 0.503 square meters (m^2) at a spray height of 18 inches ([…]) above average plant canopy. Control plants were sprayed in the same manner with the solvent blank. The treated plants and control plants were placed in a greenhouse as described above and watered by sub-irrigation to prevent wash-off of the test compounds. […] Colby's equation was used to determine the herbicidal effects expected from the mixtures (Colby, S. R. Calculation of the synergistic and antagonistic response of herbicide combinations. Weeds 1967, 15, 20-22.). The following equation was used to calculate the expected activity of mixtures containing two active ingredients, A and B: […] A=observed efficacy of active ingredient A at the same concentration as used in the mixture; B=observed efficacy of active ingredient B at the same concentration as used in the mixture.

Data set [1] has as its system ABUTH = Abutilon theophrasti Medik. In words: Postemergence herbicidal activity, greenhouse, visual injury. To be noted: for pest or weed control at 5 g/ha / pest or weed control at 40 g/ha: Abutilon theophrasti, post-emergence, 480 h, read-out: ABUTH Obs (observed visual injury). Here is the method:
as §1

Data set [2] concerns HELAN = Helianthus annuus L. The description is as above. The conditions noted are these: for pest or weed control at 5 g/ha / pest or weed control at 40 g/ha: Helianthus annuus, post-emergence, 480 h, read-out: HELAN Obs (observed visual injury). As for the experimental part:
as §1

Where [3] appears, read: applied alone at 5 g ai/ha, postemergence, after 20-22 days.
Setting [4] is: applied alone at 40 g ai/ha, postemergence, after 20-22 days.
The mark [5] stands for this setting: postemergence, after 20-22 days.
Setting [6] is: applied alone at 6 g ai/ha, postemergence, after 20-22 days.
Where [7] appears, read: applied alone at 20 g ai/ha, postemergence, after 20-22 days.
The mark [8] stands for this setting: applied alone at 80 g ai/ha, postemergence, after 20-22 days.
The mark [9] stands for this setting: applied alone at 160 g ai/ha, postemergence, after 20-22 days.

SMILES strings stand for the structures. “And” between values parts separate entries of the source, which are not always exact repeats. Identical values can stand only once. Like-named read-outs stand apart in the source and are kept apart here.

On to `N#C/C(=N/OCC1OCCO1)c1ccccc1` [Oxabetrinil, α-[(1,3-dioxolan-2-yl)methoxyimino]benzeneacetonitrile], for which the “ZEAMX Obs (observed visual injury)” value in the data set on ZEAMX = Zea mays L. (setting [3]) and in the data set with ZEAMX = Zea mays L. (setting [4]) was 0% in each case. The pest or weed control at 5 g/ha in data set [1] (setting [3]) and in data set [2] (setting [3]) was 0% in each case. Besides, the pest or weed control at 40 g/ha in data set [1] (setting [4]) and in data set [2] (setting [4]) was 0% each time.

Take `CCOC(=O)C1=NOC(c2ccccc2)(c2ccccc2)C1` [Isoxadifen-ethyl, ethyl 4,5-dihydro-5,5-diphenyl-3-isoxazole-carboxylate]: in the data set with ZEAMX = Zea mays L. (setting [5]), the “ZEAMX Obs (observed visual injury, 0 = no injury, 100 = complete kill)” value was 0%. For the same compound, the “ZEAMX Obs (observed visual injury)” value in the data set on ZEAMX = Zea mays L. (setting [3]) is reported as 0%; with ZEAMX = Zea mays L. (setting [6]), 0%; with ZEAMX = Zea mays L. (applied alone at 8 g ai/ha, postemergence, after 20-22 days) it was 0%; with ZEAMX = Zea mays L. (applied alone at 12 g ai/ha, postemergence, after 20-22 days) it was 0%; with ZEAMX = Zea mays L. (setting [7]), 0%; in the data set on ZEAMX = Zea mays L. (setting [4]), 0%. Besides, the figures for the “ZEAMX Obs (observed visual injury)” value in the data set with ZEAMX = Zea mays L. (setting [8]) and with ZEAMX = Zea mays L. (setting [9]) were 0% and 3%, respectively. In addition, the pest or weed control at 5 g/ha in data set [1] and in data set [2] was 0% in each case. Besides, the pest or weed control at 40 g/ha in data set [1] and in data set [2] was 0% each time.

With `CC1COc2ccccc2N1C(=O)C(Cl)Cl` (racemic) [Benoxacor, (±)-4-(dichloroacetyl)-3,4-dihydro-3-methyl-2H-1,4-benzoxazine], the “ZEAMX Obs (observed visual injury)” value in the data set on ZEAMX = Zea mays L. (setting [3]) and in the data set on ZEAMX = Zea mays L. (setting [4]) was 0% in each case. Also, the pest or weed control at 5 g/ha in data set [1] (setting [3]) and in data set [2] (setting [3]) was 0% throughout. In addition, the pest or weed control at 40 g/ha in data set [1] (setting [4]) and in data set [2] (setting [4]) was 0% throughout.

With `C=CCN(CC=C)C(=O)C(Cl)Cl` [Dichlormid, N,N-diallyl-2,2-dichloroacetamide], the “ZEAMX Obs (observed visual injury)” value with ZEAMX = Zea mays L. (setting [3]) and in the data set on ZEAMX = Zea mays L. (setting [4]) was 0% throughout. Also, the pest or weed control at 5 g/ha in data set [1] (setting [3]) and in data set [2] (setting [3]) was 0% throughout. The pest or weed control at 40 g/ha in data set [1] (setting [4]) and in data set [2] (setting [4]) was 0% throughout.

For `Cc1ccc(NC(=O)NC(C)(C)c2ccccc2)cc1` [Daimuron, N-(4-methylphenyl)-N′-(1-methyl-1-phenylethyl)-urea], the “ZEAMX Obs (observed visual injury)” value in the data set on ZEAMX = Zea mays L. (in vivo) stood at 0%. Further, the pest or weed control at 5 g/ha in data set [1] (setting [3]) and in data set [2] (setting [3]) was 0% throughout. In addition, the pest or weed control at 40 g/ha in data set [1] (setting [4]) and in data set [2] (setting [4]) was 0% each time.

Turning to `FC(F)(F)/C(=N/OCC1OCCO1)c1ccc(Cl)cc1` [Fluxofenim, 1-(4-chlorophenyl)-2,2,2-trifluoroethanone O-(1,3-dioxolan-2-ylmethyl)oxime], the “ZEAMX Obs (observed visual injury)” value in the data set with ZEAMX = Zea mays L. (setting [3]) and with ZEAMX = Zea mays L. (setting [4]) was 0% each time. Also, the pest or weed control at 5 g/ha in data set [1] (setting [3]) and in data set [2] (setting [3]) was 0% throughout. Further, the pest or weed control at 40 g/ha in data set [1] (setting [4]) and in data set [2] (setting [4]) was 0% each time.

Consider `NC(=O)NS(=O)(=O)c1ccccc1Cl` [Compound 2-CBSU, N-(aminocarbonyl)-2-chlorobenzenesulfonamide], for which the “ZEAMX Obs (observed visual injury)” value with ZEAMX = Zea mays L. (setting [3]) and with ZEAMX = Zea mays L. (setting [4]) was 0% throughout. Further, the pest or weed control at 5 g/ha in data set [1] (setting [3]) and in data set [2] (setting [3]) was 0% each time. The pest or weed control at 40 g/ha in data set [1] (setting [4]) and in data set [2] (setting [4]) was 0% each time.

Regarding `O=C1OC(=O)c2cccc3cccc1c23` [Naphthalic anhydride, naphthalene-1,8-dicarboxylic anhydride], the “ZEAMX Obs (observed visual injury)” value with ZEAMX = Zea mays L. (setting [3]) and in the data set with ZEAMX = Zea mays L. (setting [4]) was 0% each time. Moreover, the pest or weed control at 5 g/ha in data set [1] (setting [3]) and in data set [2] (setting [3]) was 0% in each case. In addition, the pest or weed control at 40 g/ha in data set [1] (setting [4]) and in data set [2] (setting [4]) was 0% each time.

For the compound `CC1(C)CN2C(=O)CCC2(C)N(C(=O)C(Cl)Cl)C1` (racemic) [Dicyclonon], the “ZEAMX Obs (observed visual injury)” value in the data set with ZEAMX = Zea mays L. (setting [3]) and with ZEAMX = Zea mays L. (setting [4]) was 0% in each case. In addition, the pest or weed control at 5 g/ha in data set [1] (setting [3]) and in data set [2] (setting [3]) was 0% each time. The pest or weed control at 40 g/ha in data set [1] (setting [4]) and in data set [2] (setting [4]) was 0% throughout.

For the compound `CCCCCC(C)OC(=O)COc1ccc(Cl)c2cccnc12` (stereo not shown) [Cloquintocet-mexyl], the “ZEAMX Obs (observed visual injury)” value in the data set with ZEAMX = Zea mays L. (setting [7]), in the data set on ZEAMX = Zea mays L. (setting [4]), with ZEAMX = Zea mays L. (setting [8]) and with ZEAMX = Zea mays L. (setting [9]) was 0% throughout.

In the case of `COc1c(Cl)ccc(-c2nc(C(=O)OCc3ccccc3)c(Cl)c(N)c2F)c1F` [Compound A benzyl ester], the “ZEAMX Obs (observed visual injury, 0 = no injury, 100 = complete kill)” value in the data set with ZEAMX = Zea mays L. (setting [5]) worked out at 10%. Moreover, the “ZEAMX Obs (observed visual injury)” value was 16% in the data set on ZEAMX = Zea mays L. (setting [6]); 32% in the data set on ZEAMX = Zea mays L. (setting [7]); 45% and 23% in the data set on ZEAMX = Zea mays L. (setting [4]). In addition, in data set [1] (setting [4]), the “ABUTH Obs (observed visual injury)” value turned out to be 95%. In addition, in data set [2] (setting [4]), the “HELAN Obs (observed visual injury)” value came out at 94%.

For the compound `CC1(C)OC(c2ccco2)CN1C(=O)C(Cl)Cl` (racemic) [Furilazole, (±)-3-(dichloroacetyl)-5-(2-furanyl)-2,2-dimethyloxazolidine], the “ZEAMX Obs (observed visual injury)” value in the data set on ZEAMX = Zea mays L. (setting [3]) and with ZEAMX = Zea mays L. (setting [4]) was 0% each time. In addition, the pest or weed control at 5 g/ha in data set [1] (setting [3]) and in data set [2] (setting [3]) was 0% each time. Also, the pest or weed control at 40 g/ha in data set [1] (setting [4]) and in data set [2] (setting [4]) was 0% in each case.
